Values after ≈ are worked out from the molar mass of the structure shown. Structures can show the parent of a compound that is named as a salt. Where a SMILES comes first, the peptide text is derived from it. [ ]: non-standard residue; d: D form. The star is where a group is joined. Gly(cPent) = N[CH](C(=O)O)C1CCCC1; Cbz = O=C(OCc1ccccc1)*; Abu = CC[CH](N)C(=O)O
target: T1, Recombinant human calpain I (Homo sapiens, UniProt P07384); assay: Inhibition of calpain I activity (Succ-Leu-Tyr-MNA hydrolysis); type: biochemical; conditions: 0.2 mM Succ-Leu-Tyr-MNA, pH 7.5
T1 construct: made in house
T1 sequence (P07384 1-714): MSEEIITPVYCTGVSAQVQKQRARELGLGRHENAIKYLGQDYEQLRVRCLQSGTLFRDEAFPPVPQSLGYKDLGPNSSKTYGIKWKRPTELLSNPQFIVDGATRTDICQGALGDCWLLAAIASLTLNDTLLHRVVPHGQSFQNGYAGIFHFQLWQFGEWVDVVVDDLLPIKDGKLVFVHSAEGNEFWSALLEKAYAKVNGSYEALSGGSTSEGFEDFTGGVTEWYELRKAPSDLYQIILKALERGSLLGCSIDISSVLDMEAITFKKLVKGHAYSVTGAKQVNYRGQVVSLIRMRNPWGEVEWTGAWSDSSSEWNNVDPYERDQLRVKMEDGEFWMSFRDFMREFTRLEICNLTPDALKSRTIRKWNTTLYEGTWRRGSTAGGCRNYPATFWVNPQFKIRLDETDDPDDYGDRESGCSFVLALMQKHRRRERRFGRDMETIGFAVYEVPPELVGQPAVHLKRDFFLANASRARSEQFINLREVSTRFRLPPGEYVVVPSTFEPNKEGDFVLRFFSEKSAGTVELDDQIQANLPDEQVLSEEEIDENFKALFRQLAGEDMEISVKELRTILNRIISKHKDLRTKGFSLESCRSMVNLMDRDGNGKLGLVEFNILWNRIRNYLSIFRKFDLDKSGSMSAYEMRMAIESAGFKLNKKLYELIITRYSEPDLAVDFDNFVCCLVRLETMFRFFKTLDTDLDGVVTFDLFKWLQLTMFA
T1 sequence (P04632 1-268 partner): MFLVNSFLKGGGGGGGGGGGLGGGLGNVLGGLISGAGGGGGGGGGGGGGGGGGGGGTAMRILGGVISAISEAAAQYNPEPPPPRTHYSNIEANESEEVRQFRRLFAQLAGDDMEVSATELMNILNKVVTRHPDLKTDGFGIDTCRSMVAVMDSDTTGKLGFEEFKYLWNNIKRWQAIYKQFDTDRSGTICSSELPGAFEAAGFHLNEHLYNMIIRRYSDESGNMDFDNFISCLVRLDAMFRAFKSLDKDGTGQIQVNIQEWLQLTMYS
Experimental: To evaluate inhibitory activity, stock solutions (40 concentrated) of each compound to be tested were prepared in 100% anhydrous DMSO and 5 μl of each inhibitor preparation were aliquoted into each of three wells of a 96-well plate. Recombinant human calpain I, prepared by the of Meyer et al. (Biochem. J. 1996, 314: 511-519), was into assay buffer (i.e., 50 mM Tris, 50 mM NaCl, 1 mM EDTA, 1 mM EGTA, and 5 mM β-mercaptoethanol, pH 7.5, including 0.2 mM Succ-Leu-Tyr-MNA), and 175 μl was aliquoted into the same wells containing the independent inhibitor stocks as well as to positive control wells which contained 5 μl DMSO, but no compound. To start the reaction, 20 μl of 50 mM CaCl2 in assay buffer was added to all wells of the plate, excepting three, which were used as background signal baseline controls. Substrate hydrolysis was monitored every 5 minutes for a total of 30 minutes. Substrate hydrolysis in the absence of inhibitor was linear for up to 15 minutes.
Inhibition of calpain I activity was calculated as the percent decrease in the rate of substrate hydrolysis in the presence of inhibitor relative to the rate in its absence. Comparison between the inhibited and control rates was made within the linear range for substrate hydrolysis. The IC50 values for inhibitors (concentration yielding 50% inhibition) were determined from the percent decrease in rates of substrate hydrolysis in the presence of five to seven different concentrations of the test compound. The results were plotted as percent inhibition versus log inhibitor concentration, and the IC50 was calculated by fitting the data to the four-parameter logistic equation shown below using the program GraphPad Prism (GraphPad Software, Inc., San Diego, Calif.).
In the equation above, the parameters a, b, c, and d are defined as follows: a is % inhibition in the absence of inhibitor, b is the slope, c is the IC50, and d is the % inhibition at an infinite concentration of inhibitor.

| Compound | IC50 |
| --- | --- |
| CC(C)[C@H](NC(=O)OCc1ccccc1)C(=O)NC(Cc1ccccc1)C(O)S(=O)(=O)O (stereo partly drawn) [Compound 1, Benzyloxycarbonyl-L-valyl-2-amino-1-hydroxy-3-phenylpropanesulfonic acid sodium Salt] | 10 nM |
| O=C(N[C@H](C(=O)NC(Cc1ccccc1)C(O)S(=O)(=O)O)C1CCCC1)OCc1ccccc1 (stereo partly drawn) [Compound 3, Benzyloxycarbonyl-L-cyclopentylglycyl-2-amino-1-hydroxy-3-phenylpropanesulfonic acid sodium Salt] | 15 nM |
| Tetrahydroisoquinoline-2-carbonyl-L-leucyl-2-amino-1-hydroxy-3-phenylpropanesulfonic acid sodium Salt [Compound 2] | 32 nM |

system: not listed separately; assay: Solubility of inhibitors in Locke's buffer; type: physicochemical; conditions: Locke's buffer pH 7.4; sulfonic acids: buffer added to weighed sample at 20° C.; control aldehydes: by UV absorption of filtrate

| Solubility | Compound |
| --- | --- |
| 80 µg/mL (≈ 196 µM) | O=CC(Cc1ccccc1)NC(=O)C(NC(=O)OCc1ccccc1)C1CCCC1 (stereo not drawn) [Cbz-CyclopentylGly-Phe-H] (Cbz-[Gly(cPent)]-Phe-aldehyde; configuration not given here) |
| 210 µg/mL (≈ 628 µM) | CCC(C=O)NC(=O)C(CC(C)C)NC(=O)OCc1ccccc1 (stereo not drawn) [Cbz-Leu-Abu-H] (Cbz-Leu-[Abu]-aldehyde; configuration not given here) |
| 180 µg/mL (≈ 471 µM) | CC(C)[C@H](NC(=O)OCc1ccccc1)C(=O)N[C@H](C=O)Cc1ccccc1 [Cbz-Val-Phe-H] (Cbz-Val-Phe-aldehyde) |
| 180 µg/mL (≈ 427 µM) | CC(C)C[C@H](NC(=O)N1CCc2ccccc2C1)C(=O)N[C@H](C=O)Cc1ccccc1 [THIQ-2-CO-Leu-Phe-H] |
